Holding throughout (assay type): biochemical
Assay [1] concerns the target T1, LRRK2(G2019S mutation, GST-LRRK2(amino acids 970-2527)) (Homo sapiens, UniProt Q5S007, G2019S).
T1 construct: GST-LRRK2(amino acids 970-2527); GST (N); purchased Life Technologies Corporation
The assay is described as follows: LRRK2 5 mM ATP LanthaScreen Assay. The note with it: mean IC50 of several tests. The procedure:
The data presented for the 5 mM and Km ATP LanthaScreen™ Assay represents mean IC50 values based on several test results and may have reasonable. deviations depending on the specific conditions and reagents used. Reagents for the LRRK2 5 mM and Km ATP LanthaScreen™ Assay were purchased from Life Technologies Corporation.
LRRK2 5 mM ATP LanthaScreen™ Assay • a) 400 nl of a 1:2.15 serial dilution of test compound (98 μM top assay concentration) is spotted via Labcyte Echo to certain wells in a 384 well black, untreated plate. […] Results are analysed using Assay Data Analyzer.

The target of assay [2] is T1, LRRK2(G2019S mutation, GST-LRRK2(amino acids 970-2527)). Briefly: LRRK2 Km ATP LanthaScreen Assay. An outline of the steps: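 IC50 values are means of several runs in the Km-ATP LanthaScreen format, analysed by curve fitting of the LanthaScreen read-out.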
In general terms: Time-resolved FRET reads energy transfer from a long-lived donor to a nearby acceptor.

Assay [3] has as its target T2, kinases (Table B) (Homo sapiens, UniProt Q13627).
T2 construct: purchased Life Technologies Corporation
Briefly: Kinase selectivity, Z'-LYTE or Adapta assay platforms (Life Technologies). The following applies: DYRK1A; Z-LYTE; test conc 0.100 μM; read-out: percent inhibition DYRK1A.

Assay [4] deals with T3, kinases (Table B) (Homo sapiens, UniProt Q96GD4).
T3 construct: purchased Life Technologies Corporation
T3 sequence (Q96GD4 whole entry): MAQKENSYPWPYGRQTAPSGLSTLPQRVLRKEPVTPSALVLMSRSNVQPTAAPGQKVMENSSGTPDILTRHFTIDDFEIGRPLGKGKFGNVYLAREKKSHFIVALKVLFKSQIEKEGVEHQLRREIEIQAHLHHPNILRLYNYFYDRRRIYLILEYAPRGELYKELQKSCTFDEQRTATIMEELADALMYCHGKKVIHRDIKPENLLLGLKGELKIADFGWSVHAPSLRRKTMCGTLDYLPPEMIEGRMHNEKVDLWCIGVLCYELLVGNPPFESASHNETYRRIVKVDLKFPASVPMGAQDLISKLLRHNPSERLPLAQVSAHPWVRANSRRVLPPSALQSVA
The assay is described as above. The following applies: AURKB (Aurora B); Z-LYTE; test conc 0.100 μM; read-out: percent inhibition AURKB (Aurora B).

For assay [5], the target named is T4, kinases (Table B) (Homo sapiens, UniProt P28482).
T4 construct: purchased Life Technologies Corporation
T4 sequence (P28482 whole entry): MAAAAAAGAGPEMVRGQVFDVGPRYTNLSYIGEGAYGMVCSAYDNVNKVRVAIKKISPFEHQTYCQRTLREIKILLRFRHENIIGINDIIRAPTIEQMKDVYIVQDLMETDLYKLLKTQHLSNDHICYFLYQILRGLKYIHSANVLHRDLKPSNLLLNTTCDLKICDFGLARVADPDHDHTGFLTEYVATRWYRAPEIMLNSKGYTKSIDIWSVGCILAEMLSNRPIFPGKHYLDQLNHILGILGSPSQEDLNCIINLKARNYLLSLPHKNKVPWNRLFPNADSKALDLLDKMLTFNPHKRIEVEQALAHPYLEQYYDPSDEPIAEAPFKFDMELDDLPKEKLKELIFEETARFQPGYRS
Described as above. The following applies: MAPK1 (ERK2); Z-LYTE; test conc 0.100 μM; read-out: percent inhibition MAPK1 (ERK2).

Assay [6] has as its system kinases (Table B). The description is as above. The note with it: test conc 0.100 μM.
Where [7] appears, read: Km ATP LanthaScreen, mean IC50 of several tests, read-out: LRRK2 IC50.
Setting [8] is: Km ATP LanthaScreen Assay, LRRK2 G2019S, mean IC50 values, read-out: LRRK2 IC50.

T1 sequence (Q5S007 970-2527 G2019S): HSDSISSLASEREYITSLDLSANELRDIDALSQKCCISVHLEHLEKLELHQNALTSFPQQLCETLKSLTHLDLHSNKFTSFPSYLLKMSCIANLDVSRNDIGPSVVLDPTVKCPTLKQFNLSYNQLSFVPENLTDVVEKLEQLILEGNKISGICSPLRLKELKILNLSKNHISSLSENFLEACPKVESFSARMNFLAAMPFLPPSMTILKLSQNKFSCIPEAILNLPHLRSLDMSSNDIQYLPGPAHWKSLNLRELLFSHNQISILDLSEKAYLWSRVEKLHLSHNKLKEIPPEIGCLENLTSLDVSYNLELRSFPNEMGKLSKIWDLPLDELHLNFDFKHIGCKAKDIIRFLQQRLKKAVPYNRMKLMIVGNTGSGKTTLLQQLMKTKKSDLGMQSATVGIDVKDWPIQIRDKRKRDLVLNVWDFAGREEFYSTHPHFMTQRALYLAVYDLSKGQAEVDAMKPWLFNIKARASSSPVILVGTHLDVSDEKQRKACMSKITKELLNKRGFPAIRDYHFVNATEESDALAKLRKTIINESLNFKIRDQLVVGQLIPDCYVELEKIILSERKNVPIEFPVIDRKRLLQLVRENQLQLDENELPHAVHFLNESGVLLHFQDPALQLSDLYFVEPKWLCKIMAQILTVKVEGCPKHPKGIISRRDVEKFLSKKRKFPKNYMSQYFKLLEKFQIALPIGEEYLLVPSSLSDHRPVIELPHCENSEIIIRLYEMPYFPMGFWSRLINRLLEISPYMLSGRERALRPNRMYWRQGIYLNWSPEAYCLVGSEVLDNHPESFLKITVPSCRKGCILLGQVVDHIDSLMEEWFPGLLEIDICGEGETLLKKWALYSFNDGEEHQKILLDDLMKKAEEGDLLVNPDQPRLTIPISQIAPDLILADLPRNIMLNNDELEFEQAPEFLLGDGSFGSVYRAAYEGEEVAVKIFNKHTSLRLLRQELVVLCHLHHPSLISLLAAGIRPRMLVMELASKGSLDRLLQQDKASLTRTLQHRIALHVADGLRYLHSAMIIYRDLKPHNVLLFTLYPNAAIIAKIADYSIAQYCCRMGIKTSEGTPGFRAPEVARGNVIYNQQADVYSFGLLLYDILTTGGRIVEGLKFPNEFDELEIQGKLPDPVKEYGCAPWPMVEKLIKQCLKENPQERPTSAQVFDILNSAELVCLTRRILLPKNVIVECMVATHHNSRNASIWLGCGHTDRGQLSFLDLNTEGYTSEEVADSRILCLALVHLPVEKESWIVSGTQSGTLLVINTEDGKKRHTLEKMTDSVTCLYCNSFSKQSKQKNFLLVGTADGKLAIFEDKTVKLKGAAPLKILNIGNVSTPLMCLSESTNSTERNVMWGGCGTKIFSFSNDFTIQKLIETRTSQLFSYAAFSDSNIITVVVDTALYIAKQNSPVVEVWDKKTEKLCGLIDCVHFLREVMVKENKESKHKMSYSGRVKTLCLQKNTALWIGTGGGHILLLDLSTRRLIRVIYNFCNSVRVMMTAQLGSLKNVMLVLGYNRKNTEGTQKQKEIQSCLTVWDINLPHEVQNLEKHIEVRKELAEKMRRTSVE

On to `Cc1c(-c2ccc3[nH]nc(-c4ccnc(N5CCOCC5)c4)c3c2)cnn1C` [Example 316], for which the IC50 was found to be 8 nM in assay [1] and 2.1 nM in assay [2] (setting [7]). Taken in the same sequence, the figures for `CC(C)Oc1ccc2[nH]nc(-c3ccnc(N4CCNC(=O)C4)c3)c2c1` [Example 311] were 14 nM and less than 0.6 nM.

By inhibition is commonly meant the relative decrease from the control value, in per cent. For `CC(C)Oc1ccc2[nH]nc(-c3ccnc(N4CCN(C)CC4)c3)c2c1` [Example 383], the inhibition at 0.1 µM in assay [3] turned out to be 8%; in assay [4] it was 8%; in assay [5], 10%. Moreover, the “percent inhibition CDK1/cyclin B” value in assay [6] (CDK1/cyclin B, Z-LYTE) is 5%. Further, the “percent inhibition CLK2” value in assay [6] (CLK2, Z-LYTE) is 26%. Besides, the “percent inhibition IRAK1” value in assay [6] (IRAK1, Adapta) was 2%. The “percent inhibition JAK3” value in assay [6] (JAK3, Z-LYTE) is given as 7%. For the same compound, the IC50 was 22 nM in assay [1] and 0.75 nM in assay [2] (setting [7]). On to `Oc1cc(-c2ccc3[nH]nc(-c4ccnc(N5CCC(O)CC5)c4)c3c2)ccn1` [Example 121], for which the IC50 in assay [1] amounted to 16 nM; in assay [2] (setting [8]) it was 1.4 nM. On to `Cn1cc(-c2ccc3[nH]nc(-c4ccnc(N5CCOCC5)c4)c3c2)cn1` [Example 321], for which the IC50 in assay [1] is 12 nM; in assay [2] (setting [7]), less than 0.6 nM.

With `Cn1cc(-c2ccc3[nH]nc(-c4ccnc(N5CCC(C(=O)O)CC5)c4)c3c2)cn1` [Example 304], the IC50 in assay [2] (setting [7]) was found to be 3.6 nM.

As for `O=S(=O)(c1ccc2[nH]nc(-c3ccnc(N4CCOCC4)c3)c2c1)C1CC1` [Example 370], in assay [2] (setting [7]), the IC50 amounted to 18 nM. With `COC1CN(c2cc(-c3n[nH]c4ccc(OC(C)C)cc34)ccn2)C1` [Example 183], the IC50 in assay [2] (setting [8]) turned out to be 5.3 nM.

With `c1cc(-c2ccc3[nH]nc(-c4ccnc(N5CCOCC5)c4)c3c2)ccn1` [Example 97], in assay [2] (setting [7]), the IC50 was found to be 13.7 nM. On to `N#CC1(c2ccccc2)CCN(c2cc(-c3n[nH]c4ccccc34)ccn2)CC1` [Example 14], for which the IC50 in assay [2] (setting [8]) turned out to be 67 nM. On the same count and under the same terms, the figure for `c1ccc2c(-c3ccnc(N4CCCC4)c3)n[nH]c2c1` [Example 5] is 17 nM.

As to `Cc1nnc(-c2ccc3[nH]nc(-c4ccnc(N5CCOCC5)c4)c3c2)o1` [Ex 342], the IC50 in assay [2] (setting [7]) amounted to 0.61 nM.

`Cn1cnnc1-c1ccc2[nH]nc(-c3ccnc(N4CC(F)C4)c3)c2c1` [Example 309]: the IC50 in assay [2] (setting [7]) came out at 1.8 nM. For `CC(C)CCC(=O)Nc1cc(-c2n[nH]c3ccc(OC(C)C)cc23)ccn1` [Example 149], in assay [2] (setting [8]), the IC50 came to 79.6 nM.

Consider `c1ccc(-c2ccc3c(-c4ccnc(N5CCOCC5)c4)n[nH]c3c2)cc1` [Example 125], for which, in assay [2] (setting [7]), the IC50 came to 34 nM. With `OCCOCCNc1cc(-c2n[nH]c3ccccc23)ccn1` [Example 58], the IC50 in assay [2] (setting [8]) was 51 nM. In the case of `CN(C)Cc1ccc2[nH]nc(-c3ccnc(N4CCOCC4)c3)c2c1` [Example 89], in assay [2] (setting [8]), the IC50 is 35 nM. `COc1ccncc1-c1cc2c(-c3ccnc(N4CCOCC4)c3)n[nH]c2cc1F` [Example 323]: in assay [2] (setting [7]), the IC50 is less than 0.6 nM. As to `CC(C)Oc1ccc2[nH]nc(-c3ccnc(NC(=O)C4CC45CCCC5)c3)c2c1` (stereo not drawn) [Example 160], the IC50 in assay [2] (setting [8]) was found to be 140 nM. The same measure, in the same setting: the figure for `CC(C)Oc1ccc2[nH]nc(-c3ccnc(NC(=O)c4ccc(C#N)cc4)c3)c2c1` [Example 143] is 113 nM. Regarding `CC(C)Oc1ccc2[nH]nc(-c3ccnc(NS(=O)(=O)c4ccc5c(c4)OCCO5)c3)c2c1` [Example 260], the IC50 in assay [2] (setting [7]) worked out at 52.3 nM.

As to `CC(C)Oc1ccc2[nH]nc(-c3ccnc(N4CC(O)(C(F)(F)F)C4)c3)c2c1` [Example 182], the IC50 in assay [2] (setting [8]) came out at 10.8 nM.

As to `COCCC(=O)Nc1cc(-c2n[nH]c3ccc(OC(C)C)cc23)ccn1` [Example 150], the IC50 in assay [2] (setting [8]) stood at 51.7 nM.

On to `CC(C)Oc1ccc2[nH]nc(-c3ccnc(N4Cc5cccnc5C4)c3)c2c1` [Example 208], for which the IC50 in assay [2] (Km ATP LanthaScreen Assay; LRRK2 G2019S; mean IC50 values; Examples 185-215; read-out: LRRK2 IC5)) is 17.5 nM. Take `CO[C@@H]1CCN(c2cc(-c3n[nH]c4ccc(OC(F)(F)F)cc34)ccn2)C1` [Example 250]: the IC50 in assay [2] (setting [8]) came to 854 nM. With `Cn1cc(-c2ccc3[nH]nc(-c4ccnc(N5CC(F)C5)c4)c3c2)cn1` [Ex 376], the IC50 was 23 nM in assay [1] and less than 0.6 nM in assay [2] (setting [7]). For `c1cc(-c2n[nH]c3ccc(CNC4CCCNC4)cc23)cc(N2CCOCC2)n1` (stereo not drawn) [Example 96], the IC50 in assay [2] (setting [8]) was 110 nM. For `CCN(c1cccc(C)c1)c1ccc2[nH]nc(-c3ccnc(N4CCOCC4)c3)c2c1` [Example 115], in assay [2] (setting [7]), the IC50 is 1570 nM. For the compound `Oc1ccc(-c2ccc3[nH]nc(-c4ccnc(N5CCOCC5)c4)c3c2)cn1` [Example 315], the IC50 in assay [2] (setting [7]) amounted to 39 nM. On to `CC(C)Oc1ccc2[nH]nc(-c3ccnc(NC(=O)c4ccnc(-n5cnnn5)c4)c3)c2c1` [Example 148], for which, in assay [2] (setting [8]), the IC50 worked out at 23.9 nM. Still for that read-out and setting: the figure for `CC(C)Oc1ccc2[nH]nc(-c3ccnc(NC4Cc5ccccc5C4)c3)c2c1` [Example 130] is 13.3 nM; for `FC1CCCN(c2cc(-c3n[nH]c4ccccc34)ccn2)C1` (stereo not drawn) [Example 21] it is 22 nM. As for `Fc1ccc2c(-c3ccnc(N4CCOCC4)c3)n[nH]c2c1` [Example 392], the IC50 in assay [2] (setting [7]) amounted to 32 nM. `CCOc1ccc2[nH]nc(-c3ccnc(N4CCC(F)(F)CC4)c3)c2c1` [Example 288]: the IC50 in assay [2] (setting [7]) came out at 22 nM.

`COc1ccccc1Nc1cc(-c2n[nH]c3ccc(Nc4cccc(S(C)(=O)=O)c4)cc23)ccn1` [Example 113]: the IC50 in assay [2] (setting [7]) is 422 nM. For `FC(F)(F)Oc1ccc2[nH]nc(-c3ccnc(N4CCCCC4)c3)c2c1` [Example 232], the IC50 in assay [2] (setting [8]) came to 279 nM. For the compound `CC(C)Oc1ccc2[nH]nc(-c3ccnc(N4CC(C(=O)O)C4)c3)c2c1` [Example 284], the IC50 in assay [2] (setting [7]) was 2.4 nM. As for `CCOc1ccc2[nH]nc(-c3ccnc(N4CCC4)c3)c2c1` [Example 230], the IC50 in assay [2] (setting [8]) turned out to be 29.4 nM.

For the compound `CC(C)Oc1ccc2[nH]nc(-c3ccnc(NCCO)c3)c2c1` [Example 140], the IC50 in assay [2] (setting [8]) came out at 7.3 nM. Still for that read-out and setting: the figure for `CC(C)Oc1ccc2[nH]nc(-c3ccnc(N4CCC(n5ccnc5)C4)c3)c2c1` (stereo not drawn) [Example 171] is 3.1 nM. In the case of `COc1cccc(F)c1-c1ccc2[nH]nc(-c3ccnc(N4CCOCC4)c3)c2c1` [Example 314], the IC50 in assay [2] (setting [7]) was less than 0.6 nM.

Consider `FC1CN(c2cc(-c3n[nH]c4ccc(-c5cccnc5)cc34)ccn2)C1` [Example 306], for which the IC50 in assay [2] (setting [7]) is 2.9 nM. For `COc1ccnc(Cl)c1-c1ccc2[nH]nc(-c3ccnc(N4CCOCC4)c3)c2c1` [Example 320], the IC50 in assay [2] (setting [7]) was less than 0.6 nM.

Consider `O=C(c1ccccc1)c1ccc2[nH]nc(-c3ccnc(N4CCOCC4)c3)c2c1` [Example 107], for which the IC50 in assay [2] (setting [7]) worked out at 3.4 nM. Same read-out and setting: the figure for `CCCOc1ccc2[nH]nc(-c3ccnc(N4CCOCC4)c3)c2c1` [Example 301] is 12 nM; for `CC(C)Oc1ccc2[nH]nc(-c3ccnc(N4CC5(COC5)C4)c3)c2c1` [Example 283] it is 5.9 nM. With `OC1CCN(c2cc(-c3n[nH]c4ccc(OC(F)(F)F)cc34)ccn2)CC1` [Example 231], the IC50 in assay [2] (setting [8]) came to 82.7 nM. Consider `Cc1ccnc(-c2ccc3[nH]nc(-c4ccnc(N5CCOCC5)c4)c3c2)n1` [Example 336], for which, in assay [2] (setting [7]), the IC50 was determined as 33 nM. Regarding `Oc1ccc2[nH]nc(-c3ccnc(N4CCCCC4)c3)c2c1` [Example 254], the IC50 in assay [2] (setting [8]) was found to be 10.1 nM.

`CCc1cnc(-c2ccc3[nH]nc(-c4ccnc(N5CCOCC5)c4)c3c2)nc1` [Example 330]: in assay [2] (setting [7]), the IC50 came out at 5.6 nM. In the case of `CC(C)Oc1ccc2[nH]nc(-c3ccnc(N4CCC(O)CC4)c3)c2c1` [Example 285], the IC50 in assay [1] was 15 nM; in assay [2] (setting [7]), 3.8 nM. `Cn1cc(-c2ccc3[nH]nc(-c4ccnc(N5CC[C@H](F)C5)c4)c3c2)cn1` [Example 278]: the IC50 in assay [2] (setting [7]) stood at 1.9 nM.

For the compound `Oc1nccnc1-c1ccc2[nH]nc(-c3ccnc(N4CCOCC4)c3)c2c1` [Example 389], the IC50 in assay [2] (setting [7]) was less than 0.6 nM. For `CN1CCC(O)(CNc2cc(-c3n[nH]c4ccccc34)ccn2)CC1` [Example 47], the IC50 in assay [2] (setting [8]) stood at 63 nM. `CC(C)Oc1ccc2[nH]nc(-c3ccnc(N4CCN(C)C(C)C4)c3)c2c1` (stereo not drawn) [Example 384]: in assay [2] (setting [7]), the IC50 was 2.2 nM. As for `CC(C)Oc1ccc2[nH]nc(-c3ccnc(NCCc4ccccn4)c3)c2c1` [Example 133], the IC50 in assay [2] (setting [8]) stood at 0.8 nM. Regarding `c1cnnc(-c2ccc3[nH]nc(-c4ccnc(N5CCOCC5)c4)c3c2)c1` [Example 326], the IC50 in assay [2] (setting [7]) amounted to 6.4 nM. The same measure, in the same setting: the figure for `Brc1ccc2[nH]nc(-c3ccnc(N4CCOCC4)c3)c2c1` [Example 77] is 11 nM.
